Source: patent US8501166B2, “Pyrimidinyl indole compounds” (Hutchison Medipharma Limited, priority 2010, dated 2013)
Structures can show the parent of a compound that is named as a salt.

How the values were obtained:
DNBS-induced colitis = DNBS-induced colitis in rat; format: in vivo, Wistar rats; conditions: 3, 10, 30 and 60 mg/kg oral, six days
Procedure: A compound is tested in DNBS-induced colitis model in rat essentially as described in a method reported in the literature (Gut. 2002; 50(3):440-1). Briefly, Wistar rats are used in the experiments. Following the induction of distal colitis by intra-colonic instillation of DNBS, the test compound at doses of 3, 10, 30, 60 mg/kg (bid) is administered to rats orally for six days. The negative control group is treated with the vehicle alone without DNBS instillation. The vehicle-control group rats are DNBS-induced and treated with vehicle. In the positive control group, sulfasalazine is orally administered to the rats at 300 mg/kg daily for six consecutive days. Animals are euthanized 24 h after the final treatment. Colon-to-body weight ratio and colonic damage scores are calculated for each animal. Vehicle treatment of rats results in a progressive worsening of clinical symptoms, achieving a maximum colonic damage score of 6.1±0.6 and colon-to-body weight ratio-colon length of 0.96±0.10 on day 7 after instillation. In this DNBS-induced inflammatory bowel disease model, rats treated with Example 2 at doses of 3, 10, 30 and 60 mg/kg show a marked reduction in colonic damage scores, colon-to-body weight-to-colon length ratio with more than 30% reduction.

IKKβ = biological target: T1, IKKβ (Homo sapiens, UniProt O14920); test: IKKβ kinase assay (Z′-LYTE Assay Kit-Ser/Thr 5 Peptide); format: biochemical
T1 sequence (O14920 1-756): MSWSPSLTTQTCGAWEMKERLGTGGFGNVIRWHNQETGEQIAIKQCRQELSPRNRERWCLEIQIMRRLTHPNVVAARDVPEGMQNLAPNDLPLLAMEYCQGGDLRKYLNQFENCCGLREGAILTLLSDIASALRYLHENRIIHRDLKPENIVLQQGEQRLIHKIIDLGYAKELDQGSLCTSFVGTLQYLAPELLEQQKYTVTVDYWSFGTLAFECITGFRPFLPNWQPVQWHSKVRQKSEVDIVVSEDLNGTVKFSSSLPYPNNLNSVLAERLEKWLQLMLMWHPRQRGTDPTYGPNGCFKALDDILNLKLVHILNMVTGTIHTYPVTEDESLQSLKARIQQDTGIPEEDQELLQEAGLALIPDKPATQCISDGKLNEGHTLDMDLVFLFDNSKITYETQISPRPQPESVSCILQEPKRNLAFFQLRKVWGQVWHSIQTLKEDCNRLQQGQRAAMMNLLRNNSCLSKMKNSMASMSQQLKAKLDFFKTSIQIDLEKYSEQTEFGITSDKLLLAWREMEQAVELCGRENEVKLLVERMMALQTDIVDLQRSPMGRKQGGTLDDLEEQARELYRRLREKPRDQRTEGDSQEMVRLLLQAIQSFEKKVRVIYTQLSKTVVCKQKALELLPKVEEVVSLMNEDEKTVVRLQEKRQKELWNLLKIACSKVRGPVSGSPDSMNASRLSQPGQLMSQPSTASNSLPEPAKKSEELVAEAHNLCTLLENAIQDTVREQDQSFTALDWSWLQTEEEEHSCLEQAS
Procedure: Alternately, the IKKβ kinase assay is performed in vitro using a Z′-LYTE™ Assay Kit-Ser/Thr 5 Peptide (Invitrogen, Cat.No. PV3178). All reactions (20 μL) are started by adding 0.8 μL of the test compound in a DMSO solution, 10 μL of Kinase/Peptide Mixture or Phospho-Peptide solution (Invitrogen, Cat.No. PV3219, diluted with 1.33× Kinase Buffer), 5 μL of 1.33× Kinase Buffer (Invitrogen, Cat.No. PV3189, 5× diluted with distilled water) or ATP Solution (5 μM), and 4.2 μL of distilled water. The 384-well assay plate (Corning, Cat.No. 3575) is mixed and incubated at room temperature for 1 hour. 10 μL of the Development Solution [Development Reagent B (Invitrogen, Cat.No. PV3296)/Development Buffer (Invitrogen, Cat.No. PV3127)=1:128] is then added to each well, mixed and incubated at room temperature for another 1 h. The kinase reaction is then stopped by adding 10 μL of the Stop Reagent (Invitrogen, Cat.No. PV3094), and the plate is read with a Wallac 1420 VICTOR^3 Multilabel Counter (PERKIN ELMER™) at 445 nm and 520 nm fluorescence. The assay has an MSR of 2.14. The compound is initially tested at 8 concentrations (10 μM) to 0.003 μM) using a 1:3 serial dilution scheme.

PLP-139-151 induced EAE = test: Mouse experimental autoimmune encephalomyelitis (EAE) model; format: in vivo, SJL/J mice
[1] = tested on: SKOV-3x-FF-luci human ovarian cancer xenograft; test: Antitumor effect in SKOV-3x-FF-luci xenograft with vincristine (VCR); format: in vivo, Balb/c nu/nu mice
Procedure: In order to expand the anti-tumor spectrum, more combination testing is explored. Based on in vitro synergistic effect of Example 1 and VCR, the compound is tested for its anti-tumor effects in SKOV-3x-FF-luci xenograft in the presence/absence of VCR. The SKOV-3x-FF-luci human ovarian cancer line (ATCC) is cultured in McCoy's 5a medium containing 10% FCS. Female Balb/c nu/nu mice (6-7 weeks old) are peritoneally injected with 0.2 mL of cell suspension containing 2×10^6 cells. Mice are divided into nine groups six days after cell implantation. The test compound is orally administered twice a day at 60 mg/kg for 20 consecutive days or at 90 mg/kg with a 2 days on and 5 days off dosing schedule. VCR at 1 or 0.3 mg/kg is administered via tail vein injection, once a week. In the combination group, VCR is given 1 h after the administration of the test compound. Mice from the control group are administered with the oral vehicle (10% Acacia at pH2.1) and intraperitoneally injected with saline. At the end of the treatment, all mice are euthanized with CO2 and tumors in the peritoneal cavity, diaphragmatic muscle, mesenterium, liver, spleen, and ovaries are harvested with surgery scissors and weighted. […] In the combination group, tumor growth is inhibited by 76% and 74%. Compared with monotherapy, statistical significance is found between combination and monotherapy.

| IC50 (IKKβ) [nM] | SMILES | reduction in colonic damage scores, colon-to-body weight-to-colon length ratio (DNBS-induced colitis) | body weight loss (PLP-139-151 induced EAE; 10 and 30 mg/kg) | ED50 (PLP-139-151 induced EAE; Mus musculus, 3, 10, and 30 mg/kg oral twice daily, read-out: ED50, EAE clinical score) [mg/kg] | tumor growth inhibition ([1]; Example 1 alone 60 mg/kg oral twice a day, 20 days) [%] | tumor growth inhibition ([1]; Example 1 alone 90 mg/kg, 2 days on and 5 days off) [%] | tumor growth inhibition ([1]; combination group: Example 1 60 mg/kg + VCR) [%] | tumor growth inhibition ([1]; combination group: Example 1 90 mg/kg + VCR) [%] |
| --- | --- | --- | --- | --- | --- | --- | --- | --- |
| 58.1 | Cl.O=C(NC1CC1)c1cccc2[nH]c(-c3nc(N[C@@H]4CCC[C@H]4O)ncc3Cl)cc12 [Example 2, 2-{5-Chloro-2-[(1R,2R)-2-hydroxycyclopentylamino]pyrimidin-4-yl}-N-cyclopropyl-1H-indole-4-carboxamide hydrochloride] | more than 30% | improves | 3.7 | – | – | – | – |
| – | O=C(NC1CC1)c1cccc2[nH]c(-c3nc(N[C@@H]4CCC[C@@H]4O)ncc3Cl)cc12 [Example 1, 2-{5-Chloro-2-[(1R,2S)-2-hydroxycyclopentylamino]pyrimidin-4-yl}-N-cyclopropyl-1H-indole-4-carboxamide hydrochloride] | – | – | – | 42 | 36 | 76 | 74 |
